Read-outs that look alike come from different tables or passages of the source.
How the values were obtained:
human GR = target: T1, human GR (Homo sapiens, UniProt P04150); assay: glucocorticoid receptor (GR) binding test, cytosol of Sf9 cells, [3H]-dexamethasone; details: human GR from Sf9 cytosol
T1 construct: made in house; host or cells: Sf9 cells infected with recombinant baculovirus (cytosol preparation)
T1 sequence (P04150 1-777): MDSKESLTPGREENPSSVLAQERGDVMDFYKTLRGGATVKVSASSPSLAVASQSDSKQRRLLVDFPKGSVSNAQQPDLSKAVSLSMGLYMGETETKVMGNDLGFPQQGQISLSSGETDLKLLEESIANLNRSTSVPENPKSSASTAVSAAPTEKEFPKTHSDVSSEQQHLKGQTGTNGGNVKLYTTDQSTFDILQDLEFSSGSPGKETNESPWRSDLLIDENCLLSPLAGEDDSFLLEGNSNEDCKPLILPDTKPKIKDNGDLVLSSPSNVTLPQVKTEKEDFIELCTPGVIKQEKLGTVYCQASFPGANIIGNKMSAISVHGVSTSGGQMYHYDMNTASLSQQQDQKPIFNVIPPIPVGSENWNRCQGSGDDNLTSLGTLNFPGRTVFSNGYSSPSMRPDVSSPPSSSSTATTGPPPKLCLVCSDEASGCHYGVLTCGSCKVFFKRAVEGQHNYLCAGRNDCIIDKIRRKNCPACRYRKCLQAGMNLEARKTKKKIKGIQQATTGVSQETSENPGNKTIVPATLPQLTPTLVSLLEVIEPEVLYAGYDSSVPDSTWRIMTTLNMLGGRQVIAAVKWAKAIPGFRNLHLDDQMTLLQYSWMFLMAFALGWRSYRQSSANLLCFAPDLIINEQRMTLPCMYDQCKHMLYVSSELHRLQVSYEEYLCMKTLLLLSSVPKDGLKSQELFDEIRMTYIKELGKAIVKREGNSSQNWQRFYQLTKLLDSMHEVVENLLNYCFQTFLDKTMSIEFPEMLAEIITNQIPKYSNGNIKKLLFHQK
Description: The binding of substances to the glucocorticoid receptor (GR) is examined with the aid of a recombinantly produced receptor. Cytosol preparations of Sf9 cells, which had been infected with recombinant baculoviruses, which code for the GR, are used for the binding studies.

[1] = tested on: secretion of cytokine IL-8 in human monocyte cell line THP-1; assay: inhibition of LPS-triggered IL-8 secretion in THP-1 cells (ELISA); format: cell-based; design: Inhibition of IL-8 Secretion Efficacy: concentration or dose not given beside the values; details: THP-1, LPS-triggered
Experimental: The concentration of the cytokines was determined in the supernatant with use of commercially available ELISA kits.
The potency of the inflammation inhibition is determined by the inhibition of the secretion of cytokine IL-8 in a cellular test. […] The concentration of the cytokine was determined in the supernatant by commercially available ELISA kits. In this connection, the compounds of formula I show a high to very high potency and action (>50%) in the inhibition (see Table 4). The potency of the racemates is considerably lower than that of the pure enantiomers.

GR (IL-6 promoter) = target: T2, GR (IL-6 promoter) (Homo sapiens, UniProt P04150); assay: reporter gene test in HeLa cells, transrepression, IL-6 promoter-luciferase; details: for Emax: HeLa, read-out: Transrepression (TR)(IL-6-Promoter) Efficacy
T2 sequence (P04150 1-777): T1 sequence (P04150 1-777)
Experimental: (§1) The MMTV promoter (transactivation) and the IL-6 promoter (transrepression) in each case were upstream to the gene that codes for the luciferase. By means of the photometric determination of the enzyme activity of the luciferase, it was possible to measure the activation of the transcription (MMTV-promoter-construct) or the inhibition of the transcription (IL-6-promoter-construct) by the GR.
(§2) This dissociation of the mechanisms of action was determined with the aid of the reporter gene test in stable transfixed human HeLa cells. To determine the transactivation induced by the GR, the MMTV promoter, which is set before a luciferase gene, is used. Via the photometric determination of the luciferase activity, it was possible to determine the transactivation activities of the GR after binding the test compounds. The inhibition of the transcription of the luciferase gene, induced by tetradecanoyl-phorbol acetate (TPA) under the control of the IL-6 promoter or the collagenase promoter (transpression) by the GR after binding the test substances, was also determined by the measurement of luciferase activity in HeLa cells.

GR (MMTV promoter) = target: T3, GR (MMTV promoter) (Homo sapiens, UniProt P04150); assay: reporter gene test in HeLa cells, transactivation, MMTV promoter-luciferase
T3 sequence (P04150 1-777): T1 sequence (P04150 1-777)
Experimental: as §1, §2

[2] = HeLa cells, TPA-induced, luciferase
[3] = read-out: Transrepression (TR)(IL-6-Promoter) IC50, HeLa cells, TPA-induced, luciferase

Compound | IC50 (human GR) [nM] | IC50 ([1]; Homo sapiens) [nM] | IC50 (GR (IL-6 promoter)) [nM] | Emax (GR (IL-6 promoter)) [%] | Inhibition of IL-8 Secretion Efficacy [1] [%] | Transrepression (TR)(IL-6-Promoter) Efficacy (GR (IL-6 promoter); [2]) [%] | IC50 (GR (IL-6 promoter); [3]) [nM] | also measured
Cc1noc(=O)c2ccc(NC(=O)C(O)(CC3(c4cccc5c4OCC5)CCC3)C(F)(F)F)cc12 (racemic) [Example 14] | – | – | – | – | 61 | 85 | 4.2 | IC50 [1]: 71 nM
Cc1noc(=O)c2ccc(NC(=O)C(O)(CC3(c4cccc5c4OCC5)CCC3)C(F)(F)F)cc12 (single isomer, unassigned) [Example 15] | – | – | – | – | 74 | 74 | 1.5 | IC50 [1]: 7.5 nM
CCc1noc(=O)c2ccc(NC(=O)C(O)(CC3(c4cccc5c4OCC5)CCC3)C(F)(F)F)cc12 (single isomer, unassigned) [Example 17] | – | – | – | – | – | 73 | 4.6 | Transactivating (TA)(MMTV-Promoter) Efficacy (GR (MMTV promoter); HeLa cells, luciferase): 50%; TA:TR EC50:IC50 (GR (MMTV promoter); MMTV promoter EC50 : IL-6 promoter IC50): 8.7; EC50 (GR (MMTV promoter); read-out: Transactivating (TA)(MMTV-Promoter) EC50, HeLa cells, luciferase): 40 nM
Cc1noc(=O)c2ccc(NC(=O)C(O)(CC(C)(C)c3cc(F)cc4c3OCO4)C(F)(F)F)cc12 (single isomer, unassigned) [Example 19] | – | – | 3.8 | 91 | – | – | – | –

The next lines start with results.

IC50 (human GR) [nM] | IC50 ([1]; Homo sapiens) [nM] | IC50 (GR (IL-6 promoter)) [nM] | Emax (GR (IL-6 promoter)) [%] | Compound | Inhibition of IL-8 Secretion Efficacy [1] [%] | Transrepression (TR)(IL-6-Promoter) Efficacy (GR (IL-6 promoter); [2]) [%] | IC50 (GR (IL-6 promoter); [3]) [nM] | also measured
1.5 | 76 | 2 | 84 | Cc1noc(=O)c2ccc(NC(=O)C(O)(CC(C)(C)c3cccc4c3OCO4)C(F)(F)F)cc12 (racemic) [Example 1, (±)-6-[4-(Benzo[1,3]dioxol-4-yl)-2-hydroxy-4-methyl-2-trifluoromethyl-valeroyl-amino]-4-methyl-2,3-benzoxazin-1-one] | 51 | – | – | –
– | 39 | 5.9 | 66 | Cc1noc(=O)c2ccc(NC(=O)C(O)(CC3(c4cccc5c4OCO5)CC3)C(F)(F)F)cc12 (racemic) [Example 3] | 53 | – | – | –
0.85 | 42 | – | – | Cc1noc(=O)c2ccc(NC(=O)C(O)(CC3(c4cccc5c4OCC5)CC3)C(F)(F)F)cc12 (racemic) [Example 12] | 52 | – | – | –
14 | – | 5.4 | 67 | COc1c(F)cccc1C1(CC(O)(C(=O)Nc2ccc3c(=O)onc(C)c3c2)C(F)(F)F)CCC1 (racemic) [Example 31] | – | – | – | –
